Laboratory results reported in US20050208496A1, “Methods of testing for bronchial asthma or chronic obstructive pulmonary disease” (Genox Research, Inc., priority 2002, published 2005).
Like-named read-outs stand apart in the source and are kept apart here.

Tested on: respiratory epithelial cells
Settings: for expression level change, AQP5 (Probe ID 91275_at) / expression level change, ESTs AI758223 (Probe ID 76769_at) / expression level change, ESTs AI927079 (Probe ID 88716_at) / expression level change, MGC14128 (Probe ID 89360_at) / expression level change, PADI1 (Probe ID 81926_at) / expression level change, ST6GalNAcI (Probe ID 89741_at) / expression level change, CNTN1 (Probe ID 88239_i_at) / expression level change, DKFZP434I1735 (Probe ID 77516_r_at) / expression level change, FLJ10718 (Probe ID 69750_at) / expression level change, LGALS1 (Probe ID 80667_f_at) / expression level change, MGC14128 (Probe ID 86024_at): IL-13 stimulation
[1] = IL-13 vs no stimulation, lot 1 Day 3 AI
[2] = IL-13 vs no stimulation, lot 1 Day 3 IMM

## IL-13: human IL-13 (Peprotech, Inc.) added to the medium at 50 ng/mL to stimulate respiratory epithelial cells
HG-U95E, lot 2, Day 7
  SLC21A12 (87860_s_at) expression change upon IL-13 stimulation: 2.8
  rab11-FIP1 (89338_at) expression change upon IL-13 stimulation: 14.6
HG-U95E, lot 2, Day 7, AI
  AA199856 (72960_s_at) expression change upon IL-13 stimulation: 5.5
  AA806114 (80826_at) expression change upon IL-13 stimulation: 2
  AI803648 (89255_at) expression change upon IL-13 stimulation: 2.4
  AI859144, KIAA1127 (77546_at) expression change upon IL-13 stimulation: 9.8
  AI984061 (89834_at) expression change upon IL-13 stimulation: 3.1
  AW024819 (72867_at) expression change upon IL-13 stimulation: 2.3
  BAL (69619_at) expression change upon IL-13 stimulation: 2.4
  BCAT1 (72962_at) expression change upon IL-13 stimulation: 3.7
  CLDN1 (77660_at) expression change upon IL-13 stimulation: 5.4
  EHF (8S090_at) expression change upon IL-13 stimulation: 3
  EHF (85092_g_at) expression change upon IL-13 stimulation: 7
  EPPK1 (86507_at) expression change upon IL-13 stimulation: 3.2
  FLJ20281 (83376_at) expression change upon IL-13 stimulation: 2.6
  FLJ20989 (91420_at) expression change upon IL-13 stimulation: 2.1
  FLJ21415 (89902_at) expression change upon IL-13 stimulation: 2.7
  FLJ22833 (67329_at) expression change upon IL-13 stimulation: 4.2
  GCNT3 (77751_at) expression change upon IL-13 stimulation: 2
  KIAA1685 (83541_at) expression change upon IL-13 stimulation: 2
  MASL1 (89651_at) expression change upon IL-13 stimulation: 4.2
  MFHAS1 (87816_g_at) expression change upon IL-13 stimulation: 2.7
  RIG-1 (77749_at) expression change upon IL-13 stimulation: 2.3
  SCYA26 (90189_at) expression change upon IL-13 stimulation: 29.8
Lot 1, Day 3, AI
  expression level change, AQP5 (Probe ID 91275_at): −7.7
  expression level change, ESTs AI758223 (Probe ID 76769_at): −3.6
  expression level change, ESTs AI927079 (Probe ID 88716_at): −2.7
  expression level change, MGC14128 (Probe ID 89360_at): −2.1
  expression level change, PADI1 (Probe ID 81926_at): −6.1
  expression level change, ST6GalNAcI (Probe ID 89741_at): −2.5
Lot 1, Day 3, IMM
  expression level change, AQP5 (Probe ID 91275_at): −3.8
  expression level change, ESTs AI758223 (Probe ID 76769_at): −2.1
  expression level change, MGC14128 (Probe ID 89360_at): −2.6
Lot 1, Day 7, AI
  expression level change, AQP5 (Probe ID 91275_at): −3.7
  expression level change, CNTN1 (Probe ID 88239_i_at): −2
  expression level change, DKFZP434I1735 (Probe ID 77516_r_at): −2
  expression level change, ESTs AI758223 (Probe ID 76769_at): −14.8
  expression level change, ESTs AI927079 (Probe ID 88716_at): −12.9
  expression level change, FLJ10718 (Probe ID 69750_at): −3
  expression level change, LGALS1 (Probe ID 80667_f_at): −7.2
  expression level change, MGC14128 (Probe ID 86024_at): −4
  expression level change, MGC14128 (Probe ID 89360_at): −3.8
  expression level change, PADI1 (Probe ID 81926_at): −6.1
  expression level change, ST6GalNAcI (Probe ID 89741_at): −2.4
Lot 1, Day 7, IMM
  expression level change, CNTN1 (Probe ID 88239_i_at): −2.7
  expression level change, ESTs AI758223 (Probe ID 76769_at): −15.7
  expression level change, ESTs AI927079 (Probe ID 88716_at): −10.7
  expression level change, FLJ10718 (Probe ID 69750_at): −4.7
  expression level change, LGALS1 (Probe ID 80667_f_at): −5.2
  expression level change, MGC14128 (Probe ID 86024_at): −2.9
  expression level change, MGC14128 (Probe ID 89360_at): −2.9
  expression level change, PADI1 (Probe ID 81926_at): −7.6
  expression level change, ST6GalNAcI (Probe ID 89741_at): −4.3
Lot 2, Day 3, AI
  expression level change, AQP5 (Probe ID 91275_at): −14.3
  expression level change, CNTN1 (Probe ID 88239_i_at): −3.8
  expression level change, ESTs AI758223 (Probe ID 76769_at): −9.6
  expression level change, ESTs AI927079 (Probe ID 88716_at): −7
  expression level change, LGALS1 (Probe ID 80667_f_at): −2.5
  expression level change, MGC14128 (Probe ID 86024_at): −2.4
  expression level change, PADI1 (Probe ID 81926_at): −6.7
  expression level change, ST6GalNAcI (Probe ID 89741_at): −8.8
Lot 2, Day 7, AI
  expression level change, AQP5 (Probe ID 91275_at): −7.7
  expression level change, CNTN1 (Probe ID 88239_i_at): −3.3
  expression level change, DKFZP434I1735 (Probe ID 77516_r_at): −2.7
  expression level change, ESTs AI927079 (Probe ID 88716_at): −18.5
  expression level change, FLJ10718 (Probe ID 69750_at): −3.6
  expression level change, LGALS1 (Probe ID 80667_f_at): −8.2
  expression level change, MGC14128 (Probe ID 86024_at): −2.8
  expression level change, MGC14128 (Probe ID 89360_at): −4
  expression level change, PADI1 (Probe ID 81926_at): −6.8
  expression level change, ST6GalNAcI (Probe ID 89741_at): −8.4
[1]
  AKR1B10 (37482_at) expression change: −6.5
  AKR1C3 (37399_at) expression change: −3.3
  AREG (34898_at) expression change: −2.3
  BDKRB2 (39310_at) expression change: −2.1
  BENE (33331_at) expression change: −3.7
  CTSL2 (40717_at) expression change: −2.8
  DUSP1 (1005_at) expression change: −2.8
  GABRE (34280_at) expression change: −2
  GPNMB (38379_at) expression change: −3.3
  IGFBP3 (1586_at) expression change: −2.4
  IGFBP3 (37319_at) expression change: −2.7
  IGFBP6 (1736_at) expression change: −3.6
  IMPA2 (36496_at) expression change: −2.8
  LOH11CR2A (38151_at) expression change: −2.1
  MMP9 (31859_at) expression change: −25.5
  MMP10 (1006_at) expression change: −6.3
  MSMB (32149_at) expression change: −8.6
  NDRG1 (36933_at) expression change: −4.9
  NOTCH3 (38750_at) expression change: −2.9
  PFTK1 (36502_at) expression change: −3.9
  PSCA (33792_at) expression change: −6
  RARRES1 (1042_at) expression change: −3.1
  RARRES1 (33505_at) expression change: −2.2
  RDC1 (34288_at) expression change: −4.1
  S100A8 (41096_at) expression change: −5.4
  SEC14L2 (32817_at) expression change: −2.1
  SERPINB5 (862_at) expression change: −2.2
  SERPINE1 (672_at) expression change: −12
  SERPINE1 (38125_at) expression change: −6.9
  STK39 (39120_at) expression change: −3.9
  c-fos (1915_s_at) expression change: −2
  c-fos (1916_s_at) expression change: −2.2
[2]
  AKR1B10 (37482_at) expression change: −2.8
  APM2 (32527_at) expression change: −2.1
  AREG (34898_at) expression change: −4.2
